Laboratory results reported in ChEMBL document CHEMBL2417551, “Structure-guided design of novel thiazolidine inhibitors of O-acetyl serine sulfhydrylase from Mycobacterium tuberculosis” (J Med Chem, 2013).

How the values were obtained:
[1] = molecular target: O-acetylserine sulfhydrylase (Mycobacterium tuberculosis) (UniProt P9WP55); details: at 500 nM
Description: Inhibition of Mycobacterium tuberculosis N-terminal His-6-tagged recombinant CysK1 expressed in Escherichia coli BL21 (DE3) at 500 nM after 20 mins by spectrophotometric analysis

[2] = molecular target: O-acetylserine sulfhydrylase (Mycobacterium tuberculosis, UniProt P9WP55)
Description: Inhibition of Mycobacterium tuberculosis N-terminal His-6-tagged recombinant CysK1 expressed in Escherichia coli BL21 (DE3) after 20 mins by spectrophotometric analysis

SMILES | inhibition [1] [%] | IC50 [2] [nM]
C=CCN1C(=O)/C(=C/c2ccccc2OCC(=O)O)S/C1=N\c1cccc(C(=O)O)c1 | 25.4 | –
CCN1C(=O)/C(=C/c2ccc(OCC(=O)O)cc2)S/C1=N\c1cccc(C(C)=O)c1 | 10 | –
CN1C(=O)/C(=C/c2ccccc2Cl)S/C1=N\c1cccc(C(=O)O)c1 | 54.6 | –
CCCN1C(=O)/C(=C/c2ccc(OCC(=O)O)cc2)S/C1=N\c1cccc(C(=O)O)c1 | 0 | –
CCN1C(=O)/C(=C/c2cnccc2C(F)(F)F)S/C1=N\c1cccc(C(=O)O)c1 | 46 | –
COC(=O)COc1ccc(/C=C2\S/C(=N\c3cccc(C(C)=O)c3)N(C(C)C)C2=O)cc1 | 7.4 | –
CN1C(=O)/C(=C/c2ccc([N+](=O)[O-])cc2)S/C1=N\c1cccc(C(=O)O)c1 | 51.8 | –
C=CCN1C(=O)/C(=C/c2ccc(OCC(=O)O)cc2)S/C1=N\c1cccc(C(C)=O)c1 | 0 | –
CC(=O)c1cccc(/N=C2\S/C(=C\c3ccc(OCC(=O)O)cc3)C(=O)N2C(C)C)c1 | 10.2 | –
CN1C(=O)/C(=C/c2ccc[nH]2)S/C1=N\c1cccc(C(=O)O)c1 | 58.4 | –
CCN1C(=O)/C(=C/c2ccco2)S/C1=N\c1cccc(C(=O)O)c1 | 29.2 | –
CCN1C(=O)/C(=C/c2ccc(OC)c(OC)c2)S/C1=N\c1cccc(C(=O)O)c1 | 90.9 | 56
CCN1C(=O)/C(=C/c2ccc(O)c(OC)c2)S/C1=N\c1cccc(C(=O)O)c1 | 75.6 | –
CCCN1C(=O)/C(=C/c2ccc(O)cc2)S/C1=N\c1cccc(C(C)=O)c1 | 10.7 | –
CCCN1C(=O)/C(=C/c2ccc(O)cc2)S/C1=N\c1cccc(C(=O)O)c1 | 95.1 | 95.1
CCCN1C(=O)/C(=C/c2ccc(OCC(=O)OC)cc2)S/C1=N\c1cccc(C(=O)O)c1 | 0 | –
COC(=O)COc1ccc(/C=C2\S/C(=N\c3cccc(C(=O)O)c3)N(C(C)C)C2=O)cc1 | 0 | –
CCN1C(=O)/C(=C/c2ccc(OC)cc2)S/C1=N\c1cccc(C(=O)O)c1 | 56.2 | –
CCCCN1C(=O)/C(=C/c2ccc(O)cc2)S/C1=N\c1cccc(C(C)=O)c1 | 25.1 | –
CCN1C(=O)/C(=C/c2ccccn2)S/C1=N\c1cccc(C(=O)O)c1 | 38.7 | –
CN1C(=O)/C(=C/c2ccccc2O)S/C1=N\c1cccc(C(=O)O)c1 | 62.7 | –
CN1C(=O)/C(=C/c2cnccc2C(F)(F)F)S/C1=N\c1cccc(C(=O)O)c1 | 34.4 | –
CN1C(=O)/C(=C/c2ccc(Br)cc2)S/C1=N\c1cccc(C(=O)O)c1 | 70.5 | –

SMILES | inhibition [1] [%] | IC50 [2] [nM]
Cc1ccc(/C=C2\S/C(=N\c3cccc(C(=O)O)c3)N(C)C2=O)cc1 | 45.6 | –
CCN1C(=O)/C(=C/c2ccccc2OC)S/C1=N\c1cccc(C(=O)O)c1 | 59.5 | –
CC(=O)c1cccc(/N=C2\S/C(=C\c3ccc(O)cc3)C(=O)N2C(C)C)c1 | 8.2 | –
C=CCN1C(=O)/C(=C/c2ccccc2OCC(=O)OC)S/C1=N\c1cccc(C(=O)O)c1 | 38.6 | –
CCN1C(=O)/C(=C/c2ccc(Cl)cc2)S/C1=N\c1cccc(C(=O)O)c1 | 54.4 | –
COc1cc(/C=C2\S/C(=N\c3cccc(C(=O)O)c3)N(C)C2=O)cc(OC)c1OC | 89.4 | 69.9
CC(C)N1C(=O)/C(=C/c2ccc(OCC(=O)O)cc2)S/C1=N\c1cccc(C(=O)O)c1 | 12.6 | –
C=CCN1C(=O)/C(=C/c2ccc(O)cc2)S/C1=N\c1cccc(C(C)=O)c1 | 28.9 | –
CC(C)N1C(=O)/C(=C/c2ccc(O)cc2)S/C1=N\c1cccc(C(=O)O)c1 | 90.3 | 141
CCN1C(=O)/C(=C/c2cccc(C(F)(F)F)c2)S/C1=N\c1cccc(C(=O)O)c1 | 26 | –
C=CCN1C(=O)/C(=C/c2ccc(O)cc2)S/C1=N\c1cccc(C(=O)O)c1 | 92.3 | 110
COc1ccccc1/C=C1\S/C(=N\c2cccc(C(=O)O)c2)N(C)C1=O | 96.9 | 160
CN1C(=O)/C(=C/c2ccc(Cl)c(Cl)c2)S/C1=N\c1cccc(C(=O)O)c1 | 60 | –
C=CCN1C(=O)/C(=C/c2ccc(OCC(=O)O)cc2)S/C1=N\c1cccc(C(=O)O)c1 | 1.4 | –
CCN1C(=O)/C(=C/c2ccc(O)cc2)S/C1=N\c1cccc(C(=O)O)c1 | 90.2 | 101
COC(=O)COc1ccccc1/C=C1\S/C(=N\c2cccc(C(=O)O)c2)N(C)C1=O | 56.3 | –
CCN1C(=O)/C(=C/c2ccccc2OCc2ccccc2)S/C1=N\c1cccc(C(=O)O)c1 | 59.3 | –
Cc1cccc(/C=C2\S/C(=N\c3cccc(C(=O)O)c3)N(C)C2=O)c1 | 49.6 | –
CCN1C(=O)/C(=C/c2ccc(C(C)C)cc2)S/C1=N\c1cccc(C(=O)O)c1 | 49.6 | –
C=CCN1C(=O)/C(=C/c2ccc(OCC(=O)OC)cc2)S/C1=N\c1cccc(C(=O)O)c1 | 19.9 | –
CCN1C(=O)/C(=C/c2ccc(OCc3ccccc3)cc2)S/C1=N\c1cccc(C(=O)O)c1 | 81.1 | –
CCN1C(=O)/C(=C/c2ccc(C)cc2)S/C1=N\c1cccc(C(=O)O)c1 | 41.7 | –
CN1C(=O)/C(=C/c2ccccc2OCc2ccccc2)S/C1=N\c1cccc(C(=O)O)c1 | 44.8 | –

SMILES | inhibition [1] [%] | IC50 [2] [nM]
CCN1C(=O)/C(=C/c2ccc(O)cc2)S/C1=N\c1cccc(C(C)=O)c1 | 3.4 | –
CN1C(=O)/C(=C/c2ccccc2Br)S/C1=N\c1cccc(C(=O)O)c1 | 50.5 | –
CCCCN1C(=O)/C(=C/c2ccc(OCC(=O)OC)cc2)S/C1=N\c1cccc(C(C)=O)c1 | 0 | –
COc1ccc(/C=C2\S/C(=N\c3cccc(C(=O)O)c3)N(C)C2=O)cc1 | 88.6 | 33.9
CCCCN1C(=O)/C(=C/c2ccc(OCC(=O)O)cc2)S/C1=N\c1cccc(C(=O)O)c1 | 0 | –
CCN1C(=O)/C(=C/c2ccc([N+](=O)[O-])cc2)S/C1=N\c1cccc(C(=O)O)c1 | 32.7 | –
CCN1C(=O)/C(=C/c2ccc(Cl)c(Cl)c2)S/C1=N\c1cccc(C(=O)O)c1 | 37.8 | –
CCN1C(=O)/C(=C/c2ccccc2OCC(=O)OC)S/C1=N\c1cccc(C(=O)O)c1 | 31 | –
CCCCN1C(=O)/C(=C/c2ccc(OCC(=O)OC)cc2)S/C1=N\c1cccc(C(=O)O)c1 | 16.4 | –
C=CCN1C(=O)/C(=C/c2ccc(OCC(=O)OC)cc2)S/C1=N\c1cccc(C(C)=O)c1 | 10.9 | –
CCN1C(=O)/C(=C/c2cccc(C)c2)S/C1=N\c1cccc(C(=O)O)c1 | 38.5 | –
CCCCN1C(=O)/C(=C/c2ccc(O)cc2)S/C1=N\c1cccc(C(=O)O)c1 | 78.5 | –
CCCN1C(=O)/C(=C/c2ccc(OCC(=O)OC)cc2)S/C1=N\c1cccc(C(C)=O)c1 | 0 | –
COC(=O)COc1ccccc1/C=C1\S/C(=N\c2cccc(C(=O)O)c2)N(C(C)C)C1=O | 55.7 | –
CCN1C(=O)/C(=C/c2ccccc2C)S/C1=N\c1cccc(C(=O)O)c1 | 47 | –
CN1C(=O)/C(=C/c2ccc(Cl)cc2)S/C1=N\c1cccc(C(=O)O)c1 | 59.7 | –
CN1C(=O)/C(=C/c2c[nH]c3ccccc23)S/C1=N\c1cccc(C(=O)O)c1 | 73.5 | –
CCN1C(=O)/C(=C/c2ccc(OCC(=O)O)cc2)S/C1=N\c1cccc(C(=O)O)c1 | 36.9 | –
CCN1C(=O)/C(=C/c2ccc(N(C)C)cc2)S/C1=N\c1cccc(C(=O)O)c1 | 52.4 | –
CCN1C(=O)/C(=C/c2ccccc2Br)S/C1=N\c1cccc(C(=O)O)c1 | 54.1 | –
CN1C(=O)/C(=C/c2ccco2)S/C1=N\c1cccc(C(=O)O)c1 | 30.1 | –
CN1C(=O)/C(=C/c2ccc(Cl)cc2Cl)S/C1=N\c1cccc(C(=O)O)c1 | 57.4 | –
CN1C(=O)/C(=C/c2ccccn2)S/C1=N\c1cccc(C(=O)O)c1 | 64.4 | –

SMILES | inhibition [1] [%] | IC50 [2] [nM]
CCN1C(=O)/C(=C/c2ccccc2O)S/C1=N\c1cccc(C(=O)O)c1 | 53.2 | –
CCN1C(=O)/C(=C/c2ccc(C(F)(F)F)cc2)S/C1=N\c1cccc(C(=O)O)c1 | 50.8 | –
CCN1C(=O)/C(=C/c2cc(OC)c(OC)c(OC)c2)S/C1=N\c1cccc(C(=O)O)c1 | 37.4 | –
CN1C(=O)/C(=C/c2cccc(O)c2)S/C1=N\c1cccc(C(=O)O)c1 | 56.8 | –
CCN1C(=O)/C(=C/c2ccc[nH]2)S/C1=N\c1cccc(C(=O)O)c1 | 32.5 | –
CCN1C(=O)/C(=C/c2ccc(OCC(=O)OC)cc2)S/C1=N\c1cccc(C(=O)O)c1 | 9.9 | –
CCN1C(=O)/C(=C/c2ccc(OCC(=O)OC)cc2)S/C1=N\c1cccc(C(C)=O)c1 | 8.2 | –
CN1C(=O)/C(=C/c2cccc(C(F)(F)F)c2)S/C1=N\c1cccc(C(=O)O)c1 | 26.1 | –
CCN1C(=O)/C(=C/c2ccc(F)cc2)S/C1=N\c1cccc(C(=O)O)c1 | 68.3 | –
CCCN1C(=O)/C(=C/c2ccc(OCC(=O)O)cc2)S/C1=N\c1cccc(C(C)=O)c1 | 0 | –
CC(C)N1C(=O)/C(=C/c2ccccc2OCC(=O)O)S/C1=N\c1cccc(C(=O)O)c1 | 18.5 | –
CCN1C(=O)/C(=C/c2ccc(Br)cc2)S/C1=N\c1cccc(C(=O)O)c1 | 60.9 | –
CCCCN1C(=O)/C(=C/c2ccc(OCC(=O)O)cc2)S/C1=N\c1cccc(C(C)=O)c1 | 24.1 | –
Cc1ccccc1/C=C1\S/C(=N\c2cccc(C(=O)O)c2)N(C)C1=O | 57.4 | –
CN1C(=O)/C(=C/c2ccc(C(F)(F)F)cc2)S/C1=N\c1cccc(C(=O)O)c1 | 72.1 | –
CCN1C(=O)/C(=C/c2c[nH]c3ccccc23)S/C1=N\c1cccc(C(=O)O)c1 | 61.9 | –
CCN1C(=O)/C(=C/c2ccccc2)S/C1=N\c1cccc(C(=O)O)c1 | 39.3 | –
CCN1C(=O)/C(=C/c2ccccc2Cl)S/C1=N\c1cccc(C(=O)O)c1 | 43.3 | –
CN1C(=O)/C(=C/c2ccccc2)S/C1=N\c1cccc(C(=O)O)c1 | 52.2 | –
CCN1C(=O)/C(=C/c2ccccc2OCC(=O)O)S/C1=N\c1cccc(C(=O)O)c1 | 15.9 | –
CC(C)c1ccc(/C=C2\S/C(=N\c3cccc(C(=O)O)c3)N(C)C2=O)cc1 | 54 | –
CCN1C(=O)/C(=C/c2cccc(O)c2)S/C1=N\c1cccc(C(=O)O)c1 | 52.8 | –
CCN1C(=O)/C(=C/c2ccc(Cl)cc2Cl)S/C1=N\c1cccc(C(=O)O)c1 | 45.4 | –
